Data reported in patent US9365522B2, “Pyrazole amide derivative” (AMGEN INC., priority 2015, dated 2016).

biological target: T1, ligand binding domain of human ROR gamma (Homo sapiens, UniProt P51449); assay: ROR gamma reporter gene assay (GAL4-RORγ LBD luciferase, Dual-Glo); format: cell-based; settings: HEK293T cells transfected with pM-ROR gamma, 8 concentrations 3.5 nM to 10.5 μM, 24 h incubation; read-out: result (pIC50, inhibition of RORγ transcriptional activity) (converted)
T1 construct: NM_001001523; expressed in transfected cells; host or cells: HEK293T
T1 sequence (P51449 247-497 isoform P51449-2): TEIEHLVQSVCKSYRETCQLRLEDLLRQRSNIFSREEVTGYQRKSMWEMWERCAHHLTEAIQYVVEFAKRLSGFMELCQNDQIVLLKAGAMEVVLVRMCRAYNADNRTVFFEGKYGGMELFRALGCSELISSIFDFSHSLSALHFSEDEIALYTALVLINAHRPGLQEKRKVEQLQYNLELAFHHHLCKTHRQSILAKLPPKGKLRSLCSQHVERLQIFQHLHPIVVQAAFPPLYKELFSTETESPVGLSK
Outline: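 Transient GAL4-RORγ LBD (aa 247-497) / 5×UAS-luc / pRL-CMV cotransfection in HEK293T, charcoal-stripped 10% FBS. 8-pt dose, 3.5 nM–10.5 μM, 0.075% DMSO final. 24 h, 37 °C, 5% CO2. Dual-Glo firefly/renilla readout; pIC50 from curve fit.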

Row | IC50 [pM] | SMILES
1 | 100000 | CC1(C)CC(CN(CC(=O)c2c(Cl)cncc2Cl)C(=O)c2cnn([C@H]3CC[C@](C)(C(=O)O)CC3)c2Cl)C1 [Example 381, trans-4-(5-chloro-4-((2-(3,5-dichloropyridin-4-yl)-2-oxoethyl)-((3,3-dimethylcyclobutyl)methyl)carbamoyl)pyrazol-1-yl)-1-methylcyclohexane-1-carboxylic acid]
2 | 11200 | CCC(C)(C)CN(CC(=O)c1c(Cl)cc(F)cc1Cl)C(=O)c1cnn(C23CCC(C(=O)O)(CC2)CC3)c1C(F)(F)F [Example 309, 4-(4-((2-(2,6-dichloro-4-fluorophenyl)-2-oxoethyl)-(2,2 dimethylbutyl)carbarnoyl)-5-(trifluoromethyl)pyrazol-1-yl)bicyclo [2.2.2] octane-1-carboxylic acid]
3 | 186000 | CC1(C)CCC(N(CC(=O)c2c(Cl)cc(F)cc2Cl)C(=O)c2cnn([C@H]3CC[C@@](C)(C(=O)O)CC3)c2C(F)(F)F)CC1 [Example 301, cis-4-(4-((2-(2,6-dichloro-4-fluorophenyl)-2-oxoethyl)-(4,4-dimethylcyclohexyl)carbamoyl)-5-(trifluoromethyl)pyrazol-1-yl)-1-methylcyclohexane-1-carboxylic acid]
4 | 191000 | CC1(C)CCC(N(CC(=O)c2c(Cl)cc(F)cc2Cl)C(=O)c2cnn([C@H]3C[C@H](C(=O)O)C3)c2C(F)(F)F)CC1 [Example 290, trans-3-(4-((2-(2,6-dichloro-4-fluorophenyl)-2-oxoethyl)-(4,4-dimethylcyclohexyl)carbamoyl)-5-(trifluoromethyl)pyrazol-1-yl)cyclobutane-1-carboxylic acid]
5 | 38000 | Cc1cc(C)c(C(=O)CN(C(=O)c2cnn([C@H]3CC[C@](C)(C(=O)O)CC3)c2C(F)(F)F)C2CCC(C)(C)CC2)c(Cl)c1 [Example 279, trans-4-(4-((2-(2-chloro-4,6-dimethylphenyl)-2-oxoethyl)-(4,4-dimethylcyclohexyl)carbamoyl)-5-(trifluoromethyl)pyrazol-1-yl)-1-methylcyclohexane-1-carboxylic acid]
6 | 93300 | C[C@]1(C(=O)O)CC[C@H](n2ncc(C(=O)N(CC(=O)c3c(Cl)cc(Cl)cc3Cl)C3CCC4(CC3)COC4)c2C(F)(F)F)CC1 [Example 289, trans-1-methyl-4-(4-(2-oxaspiro[3.5]nonan-7-yl-(2-oxo-2-(2,4,6-trichlorophenyl)ethyl)carbamoyl)-5-(trifluoromethyl)pyrazol-1-yl)cyclohexane-1-carboxylic acid]
7 | 891000 | CC1(C)[C@@H]2C[C@H](N(C[C@H](O)c3sccc3Cl)C(=O)c3cnn([C@H]4CC[C@](C)(C(=O)O)CC4)c3C(F)(F)F)C[C@@H]21 [Example 396, trans-4-(4-((2-(3-chlorothiophen-2-yl)-2-hydroxyethyl)((1R,3r,5S)-6,6-dimethylbicyclo[3.1.0]hexan-3-yl)carbamoyl)-5-(trifluoromethyl)-1H-pyrazol-1-yl)-1-methylcyclohexanecarboxylic acid]

The next lines start with the molecule.

Row | SMILES | IC50 [pM]
8 | Cc1cc(=O)[nH]c(C)c1C(=O)CN(Cc1cc(F)cc(F)c1)C(=O)c1cnn([C@H]2CC[C@H](C(=O)O)CC2)c1C(F)(F)F [Example 122, trans-4-(4-((3,5-difluorophenyl)methyl-(2-(2,4-dimethyl-6-oxo-1H-pyridin-3-yl)-2-oxoethyl)carbamoyl)-5-(trifluoromethyl)pyrazol-1-yl)cyclohexane-1-carboxylic acid] | > 1e+07
9 | CC(C)(C)[C@H]1C[C@H](CN(CC(=O)c2c(Cl)cncc2Cl)C(=O)c2cnn([C@H]3CC[C@H](C(=O)O)CC3)c2C(F)(F)F)C1 [Example 125, trans-4-(4-((3-tert-butylcyclobutyl)methyl-(2-(3,5-dichloropyridin-4-yl)-2-oxoethyl)carbamoyl)-5-(trifluoromethyl)pyrazol-1-yl)cyclohexane-1-carboxylic acid] | 324000
10 | COc1cccc(Cl)c1C(=O)CN(Cc1cc(F)cc(F)c1)C(=O)c1cnn([C@H]2CC[C@H](C(=O)O)CC2)c1C(F)(F)F [Example 54, trans-4-(4-((2-(2-chloro-6-methoxyphenyl)-2-oxoethyl)(3,5-difluorobenzyl)carbamoyl)-5-(trifluoromethyl)-1H-pyrazol-1-yl)cyclohexanecarboxylic acid] | 70800
11 | O=C(CN(Cc1cc(F)cc(F)c1)C(=O)c1cnn([C@H]2CC[C@H](C(=O)O)CC2)c1C(F)(F)F)C1CCCC1 [Example 113, trans-4-(4-((2-cyclopentyl-2-oxoethyl)-((3,5-difluorophenyl)methyl)carbamoyl)-5-(trifluoromethyl)pyrazol-1-yl)cyclohexane-1-carboxylic acid] | 4.57e+06
12 | CC(C)(C)OCCN(CC(=O)c1c(Cl)cncc1Cl)C(=O)c1cnn([C@H]2CC[C@H](C(=O)O)CC2)c1C(F)(F)F [Example 95, trans-(4((2-(3,5-dichloropyridin-4-yl)-2-oxoethyl)-(2-((2-methylpropan-2-yl)oxy)ethyl)carbamoyl)-5-(trifluoromethyl)pyrazol-1-yl)cyclohexane-1-carboxylic acid] | 151000
13 | CC(C)(CN(Cc1cc(F)cc(F)c1)C(=O)c1cnn([C@H]2CC[C@H](C(=O)O)CC2)c1C(F)(F)F)c1c(Cl)cccc1Cl [Example 118, trans-4-(4-((2-(2,6-dichlorophenyl)-2-methylpropyl)-((3,5-difluorophenyl)methyl)carbamoyl)-5-(trifluoromethyl)pyrazol-1-yl)cyclohexane-1-carboxylic acid] | 1.74e+06
14 | O=C(CN(Cc1ccccc1O)C(=O)c1cnn([C@H]2CC[C@H](C(=O)O)CC2)c1C(F)(F)F)c1c(Cl)cncc1Cl [Example 147, trans-4-(4-((2-(3,5-dichloropyridin-4-yl)-2-oxoethyl)-((2-hydroxyphenyl)methyl)carbamoyl)-5-(trifluoromethyl)pyrazol-1-yl)cyclohexane-1-carboxylic acid] | 347000
15 | CC(C)N1C2CCC1CC(N(CC(=O)c1c(Cl)cc(F)cc1Cl)C(=O)c1cnn([C@H]3CC[C@](C)(C(=O)O)CC3)c1C(F)(F)F)C2 (stereo partly drawn) [Example 305, trans-4-(4-((2-(2,6-dichloro-4-fluorophenyl)-2-oxoethyl)-(8-propan-2-yl-8-azabicyclo[3.2.1]octan-3-yl)carbamoyl)-5-(trifluoromethyl)pyrazol-1-yl)-1-methylcyclohexane-1-carboxylic acid] | > 1.05e+07
16 | C[C@]1(C(=O)O)CC[C@H](n2ncc(C(=O)N(CC(=O)c3c(Cl)cc(F)cc3Cl)Cc3cc(F)cc(F)c3)c2C(F)F)CC1 [Example 197, trans-4-(4-((2-(2,6-dichloro-4-fluorophenyl)-2-oxoethyl)-((3,5-difluorophenyl)methyl)carbamoyl)-5-(difluoromethyl)pyrazol-1-yl)-1-methylcyclohexane-1-carboxylic acid] | 513000
17 | O=C(CN(Cc1cc(F)cc(F)c1)C(=O)c1cnn([C@H]2CC[C@H](C(=O)O)CC2)c1C(F)(F)F)c1c(Cl)cncc1Cl [Example 42, trans-4-(4-((2-(3,5-dichloropyridin-4-yl)-2-oxoethyl)(3,5-difluorobenzyl)carbamoyl)-5-(trifluoromethyl)-1H-pyrazol-1-yl)cyclohexanecarboxylic acid] | 44700
18 | CC1(C)[C@@H]2C[C@H](N(CC(=O)c3c(Cl)cc(F)cc3Cl)C(=O)c3cnn(C45CCC(C(=O)O)(CC4)CC5)c3C(F)(F)F)C[C@@H]21 [Example 240, 4-(4-((2-(2,6-dichloro-4-fluorophenyl)-2-oxoethyl)-((1R,3r,5S)-6,6-dimethyl-3-bicyclo[3.1.0]hexanyl)carbamoyl)-5-(trifluoromethyl)pyrazol-1-yl)bicyclo(2.2.2)octane-1-carboxylic acid] | 5500
19 | O=C(CN(Cc1cc(F)cc(F)c1)C(=O)c1cnn([C@H]2CC[C@H](C(=O)O)CC2)c1C(F)(F)F)c1cc(Cl)ccc1Cl [Example 107, trans-4-(4-((2-(2,5-dichlorophenyl)-2-oxoethyl)-((3,5-difluorophenyl)methyl)carbamoyl)-5-(trifluoromethyl)pyrazol-1-yl)cyclohexane-1-carboxylic acid] | 2.82e+06
20 | O=C(CN(C(=O)c1cnn([C@H]2CC[C@H](C(=O)O)CC2)c1C(F)(F)F)C1CC2CCC1C2)c1c(Cl)cncc1Cl (stereo partly drawn) [Example 215, trans-4-(4-(3-bicyclo[2.2.1]heptanyl-(2-(3,5-dichloropyridin-4-yl)-2-oxoethyl)carbamoyl)-5-(trifluoromethyl)pyrazol-1-yl)cyclohexane-1-carboxylic acid] | 32400
21 | O=C(CN(Cc1cc(F)cc(F)c1)C(=O)c1cnn([C@H]2CC[C@H](C(=O)O)CC2)c1C(F)(F)F)c1ccc(O)cc1 [Example 69, trans-4-(4-((3,5-difluorobenzyl)(2-(4-hydroxyphenyl)-2-oxoethyl)carbamoyl)-5-(trifluoromethyl)-1H-pyrazol-1-yl)cyclohexanecarboxylic acid] | > 1e+07
22 | CC(C)CN(CC(=O)c1c(Cl)cncc1Cl)C(=O)c1cnn([C@H]2CC[C@H](C(=O)O)CC2)c1C(F)(F)F [Example 26, trans-4-(4-((2-(3,5-dichloropyridin-4-yl)-2-oxoethyl)(isobutyl)carbamoyl)-5-(trifluoromethyl)-1H-pyrazol-1-yl)cyclohexanecarboxylic acid] | 282000
